Assay results: US12013389B2, “Method of evaluating pathological conditions of heart failure” (NATIONAL UNIVERSITY CORPORATION HOKKAIDO UNIVERSITY, priority 2018, dated 2024)

Legend:
mitochondrial complex II [1] = target: T1, mitochondrial complex II (Mus musculus, UniProt Q8K2B3+Q9CQA3+Q9CXV1+Q9CZB0); assay: Mitochondrial respiratory capacity related to complex II after adding succinyl-CoA to isolated mitochondria (high-resolution respiration measurement); assay type: biochemical; settings: mitochondria isolated from wild type mice
T1 construct: from tissue; host or cells: mitochondria isolated from the left ventricle (myocardium) of C57BL/6J mice (wild type, sham control or HF model)
Procedure: First, the heart (left ventricle) extracted from euthanized mice under anesthesia was immersed in a tissue preservation solution BIOPS (2.77 mM CaK2EGTA, 7.23 mM K2EGTA, 5.77 mM Na2ATP, 6.56 mM MgCl2/6H2O, 20 mM taurine, 15 mM Na2 phosphocreatine, 20 mM imidazole, 0.5 mM dithiothreitol, 50 mM MES hydrate, pH 7.1), and then shredded in a tissue isolation buffer (100 mM sucrose, 100 mM KCl, 50 mM tris-HCl, 1 mM KH2PO4, 0.1 mM EGTA, 0.2% bovine serum albumin, pH 7.4). Protease was added to this shredded product to cause an enzyme reaction and homogenization was then performed. The obtained homogenized solution was centrifuged to remove the supernatant, and the precipitate was washed with a tissue isolation buffer twice. […]
A mitochondrial respiratory capacity (oxidative phosphorylation: OXPHOS) was measured by a high-resolution respiration measurement method. […] An oxygen consumption amount was calculated using Datlab software, and in this case, correction was performed per tissue weight or per mitochondrion. […]
(2) 10 mmol/L of glutamic acid, 2 mmol/L of malic acid, and 5 mmol/L of pyruvic acid, which are substrates related to mitochondrial complex I, were added, and the oxygen consumption amount was measured (CI_OXPHOS).
(§1) (3) 10 mmol/L of succinic acid, which is a substrate related to mitochondrial complex II, was added, and the oxygen consumption amount was measured (CI+II_OXPHOS). […]

mitochondrial proteins = assay: Succinylation assay of mitochondrial proteins (isolated mouse heart mitochondria, western blotting); assay type: biochemical, mice
Procedure: First, the heart (left ventricle) extracted from euthanized mice under anesthesia was immersed in a tissue preservation solution BIOPS (2.77 mM CaK2EGTA, 7.23 mM K2EGTA, 5.77 mM Na2ATP, 6.56 mM MgCl2/6H2O, 20 mM taurine, 15 mM Na2 phosphocreatine, 20 mM imidazole, 0.5 mM dithiothreitol, 50 mM MES hydrate, pH 7.1), and then shredded in a tissue isolation buffer (100 mM sucrose, 100 mM KCl, 50 mM tris-HCl, 1 mM KH2PO4, 0.1 mM EGTA, 0.2% bovine serum albumin, pH 7.4). Protease was added to this shredded product to cause an enzyme reaction and homogenization was then performed. The obtained homogenized solution was centrifuged to remove the supernatant, and the precipitate was washed with a tissue isolation buffer twice. A suspension buffer (225 mM mannitol, 75 mM sucrose, 10 mM tris-HCl, 0.1 mM EDTA, pH 7.4) was added to the washed precipitate and the precipitate was dissolved.
[…] Then, the succinylation level of the mitochondrial proteins was measured by western blotting (WB).
Specifically, first, succinyl-CoA (0, 1, 3, or 10 mM) was added to the mitochondria collected from the left ventricle of wild type mice (C57BL/6J), succinylation assay was performed, and the succinylation level of the mitochondrial proteins (the relative amount when the amount of succinylation proteins without addition of succinyl-CoA (0 mM) was set as 1) was examined. […]

H9c2 cells [2] = assay: Respiratory capacity related to mitochondrial complex II in glycine-treated H9c2 cells; assay type: cell-based
Procedure: (§2) When glycine was used, glycine was added to the culture medium for cultured H9c2 cells so that the concentration was 100 mM, and the cells were cultured for 6 hours. After culturing, the cells were collected and mitochondria were isolated. Then, the succinylation level of the mitochondrial proteins was measured by WB.
(§3) In addition, in the heme synthesis process, glycine and succinyl-CoA reacted to synthesize ALA. […] The succinylation level and the respiratory capacity related to mitochondrial complex II were examined.

H9c2 cells [3] = assay: Succinylation level of mitochondrial proteins of glycine-treated H9c2 cells; assay type: cell-based
Procedure: as §2, §3

mitochondrial complex II [4] = assay: Expression level of mitochondrial complex II per mitochondrion (blue native method, anti-SDHA); assay type: biochemical; settings: mitochondria isolated from HF model mice treated with 1 mM succinyl-CoA
Procedure: Based on the results so far, it was clearly understood that the respiratory capacity related to mitochondrial complex II could be controlled by the expression level of mitochondrial complex II per mitochondrion. Therefore, for the mitochondria isolated from the control mice and the HF model mice and the mitochondria isolated from the HF model mice and then treated with 1 mM succinyl-CoA, the expression level of mitochondrial complex II per mitochondrion was evaluated using anti-SDHA mouse monoclonal antibodies (1:1,000, ab14715, commercially available from Abeam) by a blue native method.

HF model mice [5] = assay: Exercise capacity (treadmill) of HF model mice given ALA; assay type: in vivo; settings: HF model mice with ALA vs without ALA; treadmill run until exhaustion
Procedure: (§4) The left anterior descending coronary artery of the heart of 10- to 12-week old male C57BL/6J mice (body weight of 23 to 26 g) was ligated to cause myocardial infarction (MI). The body weight of the mice was measured before the operation, a mixed anesthetic containing 3 types including 0.3 mg/kg BW of medetomedine hydrochloride, 4.0 mg/kg BW of midazolam, and 5.0 mg/kg BW of butorphanol tartrate was intraperitoneally administered, and it was confirmed that the depth of anesthesia was sufficient. […]
(§5) Specifically, after the HF model mice were underwent a left coronary artery ligation operation, an aqueous solution (50 mg/L) containing ALA (≥98%, commercially available from Sigma Aldrich) was administered by forced drinking (6 to 8 mg/kg/day), and on the 28th day after the operation, the mitochondrial functions were measured using echocardiography and a mitochondrial respiratory capacity measurement device. […]
In addition, the exercise capacities of the HF model mice without administration of ALA and the HF model mice to which ALA was administered were examined. The exercise capacity was expressed as a product of an exercise time and a body weight. The exercise time was measured using a small animal treadmill, and mice were at rest for 10 minutes, and w-up for 10 minutes (6 m/min, inclination of 10 degrees), and then forced to run until exhaustion by increasing a load (2 m/2 min). […]

mitochondrial complex II [6] = assay: Respiratory capacity related to complex II in myocardial mitochondria of HF model mice given ALA; assay type: in vivo; settings: ALA 50 mg/L in drinking water (6 to 8 mg/kg/day), day 28 after operation
Procedure: (§6) A mitochondrial respiratory capacity (oxidative phosphorylation: OXPHOS) was measured by a high-resolution respiration measurement method. Specifically, isolated mitochondria (50 to 100 μg) or myocardial fibrous tissues (0.5 to 3 mg) after the cell membrane permeation treatment were used as a test sample, and measurement was performed using a mitochondrial oxygen activity/cell metabolic energy analyzing device (product name: “OROBOROS Oxygraph-2 k,” commercially available from Innsbruck) (hereinafter referred to as a “mitochondrial respiratory capacity measurement device” in some cases) under an environment at 37° C. according to the following protocol. An oxygen consumption amount was calculated using Datlab software, and in this case, correction was performed per tissue weight or per mitochondrion.
(4) In order to observe the respiration of OXPHOS of mitochondrial complex II alone, 0.5 μmol/L of rotenone, which is an inhibitor of mitochondrial complex I, was added and the oxygen consumption amount was measured (CII_OXPHOS).
(§7) The left anterior descending coronary artery of the heart of 10- to 12-week old male C57BL/6J mice (body weight of 23 to 26 g) was ligated to cause myocardial infarction (MI). […]

mitochondrial complex IV = assay: Respiratory capacity related to complex IV in myocardial mitochondria of HF model mice given ALA; assay type: in vivo; settings: ALA 50 mg/L in drinking water (6 to 8 mg/kg/day), day 28 after operation
Procedure: as §6
(8) The respiratory capacity when 2 mmol/L of ascorbic acid and 0.5 mmol/L of TMPD (N,N,N′,N′-tetramethyl-p-phenylenediamine), which are substrates of mitochondrial complex IV, were added was measured. Next, the respiratory capacity when 100 mmol/L of sodium azide as an inhibitor was added was measured, and a difference therebetween was calculated (CIV_OXPHOS).
as §7

HF model mice [7] = assay: Echocardiography of HF model mice given ALA; assay type: in vivo; settings: HF model mice with ALA vs without ALA; 6 to 8 mg/kg/day; day 28 after operation
Procedure: Echocardiography was performed under anesthesia ([…] 8 μL/gBW, intraperitoneal administration) with a short duration of action and least impact on the cardiovascular system. The limbs and tail were fixed in a lying position to an examination table with a tape and the anterior chest wall of the mice was depilated with a depilatory cream. Using an ultrasonic diagnostic device and a 12 MHz linear probe, optimal 2D parasternal short-axis images were visualized at the papillary muscle level. Switching to an M mode method was performed, recording was performed at a recording paper speed of 40 mm/s, and a heart rate, a left ventricular end-diastolic dimension, a left ventricular end-systolic dimension, a left ventricular anterior wall thickness, a left ventricular posterior wall thickness, and a left ventricular fractional shortening were measured.
as §4

[8] = tested on: mitochondrial complex I and mitochondrial complex II; assay: Respiratory capacity related to complex I and complex II in myocardial mitochondria of HF model mice given ALA; assay type: in vivo; settings: ALA 50 mg/L in drinking water (6 to 8 mg/kg/day), day 28 after operation
Procedure: as §6, §1, §5

[9] = H9c2 cells treated with glycine, succinyl-CoA added

T1 sequence (Q8K2B3 43-664): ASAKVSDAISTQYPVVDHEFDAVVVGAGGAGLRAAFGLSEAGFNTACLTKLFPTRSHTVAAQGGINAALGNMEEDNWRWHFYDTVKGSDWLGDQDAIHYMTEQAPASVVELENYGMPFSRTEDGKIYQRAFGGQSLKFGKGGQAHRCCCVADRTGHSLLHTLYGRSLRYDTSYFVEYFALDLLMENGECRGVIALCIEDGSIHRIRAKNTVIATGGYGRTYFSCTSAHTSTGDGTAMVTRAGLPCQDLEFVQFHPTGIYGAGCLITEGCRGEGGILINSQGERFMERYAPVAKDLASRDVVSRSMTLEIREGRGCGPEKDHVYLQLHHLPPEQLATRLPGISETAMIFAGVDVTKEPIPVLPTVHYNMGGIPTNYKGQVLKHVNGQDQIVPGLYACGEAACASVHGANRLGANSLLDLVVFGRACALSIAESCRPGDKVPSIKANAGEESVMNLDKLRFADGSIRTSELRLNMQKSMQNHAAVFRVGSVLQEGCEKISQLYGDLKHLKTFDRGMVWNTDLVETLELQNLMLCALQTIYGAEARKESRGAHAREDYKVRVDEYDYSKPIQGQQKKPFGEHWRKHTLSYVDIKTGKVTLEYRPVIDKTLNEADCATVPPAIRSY
T1 sequence (Q9CQA3 29-282 limits assumed): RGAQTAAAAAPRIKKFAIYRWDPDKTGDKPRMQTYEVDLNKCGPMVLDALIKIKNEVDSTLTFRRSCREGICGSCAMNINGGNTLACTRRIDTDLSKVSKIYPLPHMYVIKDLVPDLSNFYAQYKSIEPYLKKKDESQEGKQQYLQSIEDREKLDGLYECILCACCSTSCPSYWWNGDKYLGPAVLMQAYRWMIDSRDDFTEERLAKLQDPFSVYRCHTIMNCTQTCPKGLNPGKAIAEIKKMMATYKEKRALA
T1 sequence (Q9CZB0 30-169): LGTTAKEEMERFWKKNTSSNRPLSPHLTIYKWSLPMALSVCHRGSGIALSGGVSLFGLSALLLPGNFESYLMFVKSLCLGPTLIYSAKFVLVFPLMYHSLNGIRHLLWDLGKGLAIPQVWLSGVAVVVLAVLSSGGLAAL
T1 sequence (Q9CXV1 57-159): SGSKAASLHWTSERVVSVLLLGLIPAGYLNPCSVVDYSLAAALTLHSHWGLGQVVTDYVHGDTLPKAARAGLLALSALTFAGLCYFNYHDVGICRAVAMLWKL

## CC(C)(COP(=O)(O)OP(=O)(O)OC[C@H]1O[C@@H](n2cnc3c(N)ncnc32)[C@H](O)[C@@H]1OP(=O)(O)O)[C@@H](O)C(=O)NCCC(=O)NCCSC(=O)CCC(=O)O [succinyl-CoA]
Mitochondrial complex II [1]; 1 mM succinyl-CoA
  respiratory capacity related to mitochondrial complex II: increased
Mitochondrial complex II [1]; 10 mM succinyl-CoA
  respiratory capacity related to mitochondrial complex II: significantly decreased
Mitochondrial proteins; mitochondria from left ventricle of wild type mice (C57BL/6J), succinyl-CoA 1, 3 or 10 mM, relative to 0 mM
  succinylation in the mitochondrial protein: increased
Mitochondrial proteins; mitochondria isolated from HF model mice, 0.1 mM succinyl-CoA
  succinylation level of mitochondrial proteins: improved
H9c2 cells [2]; [9]
  respiratory capacity related to mitochondrial complex II: improved
H9c2 cells [3]; [9]
  succinylation level of mitochondrial proteins: improved
Mitochondrial complex II [4]
  amount of mitochondrial complex II (expression level per mitochondrion): remained reduced

## NCC(=O)O [glycine, reference compound]
H9c2 cells [2]; cells treated with glycine
  respiratory capacity related to mitochondrial complex II: decreases
H9c2 cells [3]; H9c2 cells treated with glycine (100 mM, 6 hours)
  succinylation level of mitochondrial proteins: decreased

## NCC(=O)CCC(=O)O [ALA, 5-aminolevulinic acid]
HF model mice [5]
  exercise capacity (exercise time x body weight): significantly improved
Mitochondrial complex II [6]
  respiratory capacity related to mitochondrial complex II: improved
Mitochondrial complex IV
  respiratory capacity related to mitochondrial complex IV: improved
HF model mice [7]
  left ventricular fractional shortening (% FS): significantly improved
[8]
  respiratory capacity related to mitochondrial complex I and mitochondrial complex II: improved
